Tests used:
[1] = test system: dentate gyrus of C57B16 adult mice; assay: In vivo neurogenesis, BrdU immunostaining of dentate gyrus; parameters: species or system mouse; settings: for Neurogenesis in the dentate gyrus (BrdU-immunopositive cells): 10 mg/kg orally for ten days, healthy adult mice
Description: FIG. 9A and FIG. 9B are micrographs illustrating an example of BrdU immunostaining of a mouse dentate gyrus having been administered a vehicle and a compound. Mice were treated daily with various test compounds at 10 mg/kg p.o. (FIG. 9B) or vehicle alone (FIG. 9A) for ten days. The animals were injected daily with BrdU for the first seven days. At the end of the ten-day period, the animals were perfused and their brains sliced for immunostaining with anti-BrdU antibody and analysis.
FIGS. 10A and 10B are bar graphs illustrating an example of quantification of BrdU-immunopositive cells in the in vivo neurogenesis testing the compounds. Mice were treated with the various test compounds for in vivo neurogenesis in two cohorts. The cells from one dentate gyrus of each mouse in each test group were counted and average BrdU values immunoreactivity are shown. The symbols, * and ** indicate immunoreactivity increases of statistical significant the indicated p values. Seven compounds are especially effective in increasing the neurogenesis in the dentate gyrus of the healthy adult mice, the area known to have continued adult neurogenesis.
In one embodiment, fifteen of the compounds from Table I above are administered orally to mice at 10 mg/kg for ten days and co-administered bromodeoxyuridine (BrdU) by intraperitoneal injection for the first […] days. […] For example, in FIGS. 9A and 9B, BrdU immunostainings of hippocampal slices from two mice treated with either vehicle alone or NSI-158 are illustrated. In FIGS. 9A and 9B, the mice are treated daily for ten days with vehicle alone (FIG. 9A) or orally with various test compounds at 10 mg/kg (FIG. 9B). The animals are injected daily with BrdU for the first seven days. […]
Mice were treated with the various test compounds for in vivo neurogenesis in two cohorts as described above. The cells from one dentate gyrus of each mouse in each test group were counted and average BrdU immunoreactivity values are calculated. […]

[2] = test system: human hippocampal stem cells differentiated for a period of 3-4 weeks; assay: 2° Assay Cell#/Apop (secondary neuroprotection/apoptosis assay); assay type: cell-based
Excerpt: Other potential AD therapeutics progressing in clinical trials, target neurodegeneration in the hopes of reducing the neuronal loss and cognitive decline. Apoptotic death involving caspase pathways and DNA fragmentation has been measured in in vitro and animal models of AD and in Alzheimer's diseased brain tissue. The extent of apoptosis leading to neuronal loss is of continual debate with most agreeing it has some effect, but that other neuronal death pathways definitely play a role (see Behl, 2000; Broe et al., 2001, Roth, 2001). […]
A number of neurogenic agents inhibit neuronal loss, caspase-3 activity and/or nuclear fragmentation compared to staurosporine vehicle control. These NSI small molecule agents are all effective at in vitro neurogenesis as determined by methods described. […] Instrumentation such as a Molecular Devices fluorescent plate reader or a […] Array Scan II instrument and the like may be used to measure the degeneration and apoptosis.
Another assay used to determine the ability of a compound to provide neuroprotection is an apoptosis assay. Apoptosis is measured using the activity of an early matter of the programmed cell death pathway, caspase-3. […] Caspase-3 activity is expressed as μM of cleaved substrate per hour. […]

[3] = test system: human hippocampal stem cells; assay: Neuronal identification of mitotic cells (BrdU / TuJ1 co-staining); assay type: cell-based; settings: BrdU during last forty-eight hours of two-week treatment; FIG. 13
Excerpt: FIG. 13 is a bar graph illustrating an example of neuronal identification of the mitotic cells in response to the compound treatment. Mitotic cells were labeled with BrdU during the last forty-eight hours of the two-week treatment with the test compounds. BrdU alone and BrdU together with TuJ1 as co-stained cells were quantified. Results from NSI-106 and LIF treatment are shown as an example. […] The bars represent the mean±SD from each of six wells.
In FIG. 13, mitotic cells are labeled with BrdU during the last forty-eight hours of a two-week treatment with the test compounds. BrdU alone and BrdU together with TuJ1 as co-stained cells are quantified.
As described in pending U.S. patent application Ser. No. 10/728,652, leukemia inhibitory factor (LIF), a cytokine growth factor, was selected from among several known neurotrophic factors as a positive control against which tested compounds can be compared. […] This effect is both consistent with the neural stem cell system in which the cells respond appropriately to the positive control by enhanced differentiation and/or mitosis, and achieves the objective of the assay method in which such cellular responses can be measured reproducibly and quantifiably.
Results from NSI-106 and the positive control, LIF treatment are shown as an example. […] The bars represent the mean±SD from each of six wells.

[4] = test system: Differentiating hippocampal stem cells; assay: Committed neuronal progenitors (Ki-67 / TuJ1 co-staining); assay type: cell-based, human; settings: treated for 10 days; FIG. 14
Description: FIG. 14 is a micrograph illustrating an example of production of committed neuronal progenitors by NSI-106. Differentiating hippocampal stem cells were treated with NSI-106 for 10 days, fixed, and stained for Ki-67 protein as well as TuJ1. Ki-67 protein is an endogenous marker of mitosis.
FIG. 14 illustrates committed neuronal progenitor production by NSI-106. Differentiating hippocampal stem cells are treated with NSI-106 for 10 days, fixed, and stained for Ki-67 protein to detect dividing cells as well as TuJ1 to detect cells that have differentiated into neurons, Ki-67 protein is an endogenous marker of mitosis.

For `NC(=O)C1CCCN1C(=O)c1cccnc1NCC1CCCCC1` (stereo not shown) [NSI-158], the “Neurogenesis in the dentate gyrus (BrdU-immunopositive cells)” value [1] was “especially effective at promoting neurogenesis” and the “Dividing cells in the dentate gyrus versus vehicle (BrdU immunostaining)” value ([1]; 10 mg/kg p.o. daily for ten days, FIG. 9A/9B) was “far greater dividing cells”.

In the case of `CC(C)CCNc1ncccc1C(=O)N1CCN(Cc2ccccc2)CC1` [NSI-189], the “Neurogenesis in the dentate gyrus (BrdU-immunopositive cells)” value [1] is reported as “especially effective at promoting neurogenesis”.

In the case of `O=C(NCc1nc2ccccn2c1NCC1CCCO1)Oc1ccccc1` (stereo not shown) [NSI-182], the “2° Assay Apop” value [2] is reported as 100 ± 27 and the “2° Assay Cell#” value [2] is reported as 78 ± 34/.

`CCCCNc1c(C2CCN(C(=O)CN(CC(C)C)S(C)(=O)=O)CC2)nc2cnccn12` [NSI-106] was tested, and the “BrdU and TuJ1 co-stained mitotic cells” value [3] was “produces mostly co-stained cells” and the “Ki-67 and TuJ1 co-stained cells” value [4] was “significant number of cells are co-stained”.
